The source of these data is the NIST ThermoML archive (doi:10.1021/acs.jced.8b01193).

Numbers after ± are expanded uncertainties.

Series [1] in a line: Molar enthalpy of transition or fusion. Conditions: Crystal; DSC.
The conditions of series [2]: Crystal; DSC.

As to `O=C1CCCCCCCCCCCN1` [2-azacyclotridecanone], the “Molar enthalpy of transition or fusion” value in series [1] was determined as 16.3 ± 0.5 kJ/mol. For the same compound, the Triple point temperature in series [2] is listed as 425.95 ± 0.93 K.
